Values of other authors, collected in PMC11125333, “Self-Immolative Domino Dendrimers as Anticancer-Drug Delivery Systems: A Review” (Pharmaceutics, 2024).

Set-up: method as in PMID 25924099
Conditions: UV irradiation at 365 nm

SMILES: CC[C@@]1(O)C(=O)OCc2c1cc1n(c2=O)Cc2cc3ccccc3nc2-1 [CAMP, camptothecin]
- effect of UV irradiation on cytotoxicity / cell-killing efficacy: did not increase
